# Results as given in a melting point compilation (Tetko et al.; mined from patent text by program, amines drawn as free bases though some values may be those of a salt).
row,SMILES,melting point [°C]
1,CN1C(NCCCO)=NC(c2ccccc2)c2cc(Cl)ccc21 (configuration not stated),165 to 166
2,O=C(Nc1cc(F)c(-c2ccncc2)c(F)c1)OCc1ccccc1,185 to 186
3,Cc1ccc(S(=O)(=O)OCC2Cc3c[nH]c4cccc(c34)C(=O)N2)cc1 (configuration not stated),175 to 178
4,O=C(CCCCCCC(=O)N1CCN(CC(c2ccccc2)c2ccccc2)CC1)NO,117 to 118
5,COCCNc1ccc(N2CCOC2=O)cc1[N+](=O)[O-],148
6,COc1ccc(C(=O)CN2CCN(c3cccccc3=O)CC2)cc1OC,132 to 135
7,CCOC(=O)C1CCC2(c3cc(OC)c(OC)cc3CCN2C(=O)CCN(C)C)C(C2c3cc(OC)c(OC)cc3CCN2CC)C1 (configuration not stated),154 to 156
8,COc1ccc(CN2C(=O)C3(COc4cc5onc(C)c5cc43)c3ccccc32)cc1 (configuration not stated),138 to 139
9,O=Cc1cnc(-c2ccccc2Cl)s1,95 to 97
10,Cc1cc(O)nc2c1CCCC2,250 to 252
11,CCOC(=O)c1c(-c2ccccc2Cl)c2cc(C(C)C)ccc2[nH]c1=O,173 to 174
12,CCS(=O)(=O)N(C)Cc1ccc2[nH]cc(CCCN3CCN(c4ncncc4OC)CC3)c2c1,113 to 115
13,CCOc1ccc(-c2csc(-c3cccc(C(=O)O)c3)n2)cc1,231 to 232
14,O=C(C=Cc1ccc(CNC2CCCCC2)cc1)Nc1ccc(-c2ccc(Cl)cc2)cc1,247 to 248
15,CCCC(=O)c1c[nH]c2c(F)cccc2c1=O,176 to 178
16,COc1cc2c3c(ccc(N)c3c1N)C(=O)N(O)C2=O,317 to 318
17,CS(=O)(=O)c1ccc(-c2cc(C(=O)c3ccncc3)sc2N2CCOCC2)cc1,128
18,CCCn1c(=O)n(-c2ccc3c(c2)OCO3)c2ncc(F)cc21,153 to 154
19,Cc1c(C(=O)OCc2ccccc2)sc(NC(=O)c2cccnc2)c1C(=O)OC(C)(C)C,165 to 166
20,CCOC(=O)C1=C(C)Nc2cc[nH]c(=O)c2C1c1ccccc1Cl (configuration not stated),204 to 205
21,N#CCCC(C#N)CSc1ccc2ccccc2c1 (configuration not stated),52 to 55
22,Cc1cnc(NC(=O)C2=C(O)c3ccc4ccccc4c3S(=O)(=O)N2C)s1,249 to 250
23,CS(=O)(=O)c1ccc(-c2[nH]c3ccccc3c2-c2ccc(F)cc2)cc1,224 to 226

row,SMILES,melting point [°C]
1,CC(C)(C)OC(=O)N1CCC(c2nc3cc(-c4ccc(S(C)(=O)=O)c(F)c4)ccc3o2)CC1,174 to 178
2,O=C(O)c1c(-c2ccc(F)c(Cl)c2)c2ccccc2n1Cc1cc2c(cc1Cl)OCO2,210 to 211
3,O=S(=O)(O)CCCN1CCCc2ccccc21,233 to 237
4,CC(C)(COCc1cccc(Oc2ccccc2)c1)c1ccccc1C(=O)O,98.5 to 102
5,COc1cc(NC(C)=O)cc(OC)c1-c1ccc(C[C@H](NC(=O)c2c(Cl)cccc2Cl)C(=O)O)cc1,243 to 244
6,O=C(O)c1cnc(NCc2cccs2)nc1-c1ccccc1,212 to 213
7,Cc1oc(-c2ccccc2)nc1CCOc1ccc(C=CC#N)cc1,112 to 113
8,CCOc1ccc(C(=O)CCC(=O)Nc2sc(-c3ccccc3)nc2-c2ccccc2)cc1,169 to 170
9,CC(C)(C)c1ccc(NC(=O)c2cccc(C(OC(=O)Nc3ccc4[nH]ncc4c3)[C@@H]3CCCCN3)c2)cc1 (some centres not stated),214
10,Nc1cccc(Cn2c(-c3ccc(O)cc3)ccc2-c2ccccc2Cl)n1,170 to 172
11,CCCNC(=O)Nc1ccc(SC)cc1C(=O)NCC1CCN(C(c2ccccc2)c2ccccc2)CC1,196 to 198
12,O=C(O)Cn1c(=O)c(=O)[nH]c2cc([N+](=O)[O-])c(-n3ccc(CN4CCCCC4)c3)cc21,> 250
13,Cc1ccc(S(=O)(=O)Oc2ccc3c4c(nn3CCCN)-c3cnccc3C(=O)c24)cc1,211 to 213
14,O=C(O)C1C=CC=CC1(F)OC(Cc1c(CCNS(=O)(=O)Cc2ccc(Cl)c(Cl)c2)[nH]c2ccc(Cl)cc12)C(c1ccccc1)c1ccccc1 (configuration not stated),117 to 119
15,CCOC(=O)c1cnc2nc(C(=O)O)c(OCC)cc2c1O,270 to 272
16,Cc1ccc(S(=O)(=O)NC(=O)C2C(=O)CC(C)(C)CC2=O)cc1,94 to 108
17,CCC(=O)C(Cc1ccc(O)cc1)C(=O)CC,44 to 54
18,Cc1nc(C(C)(C)C)ccc1/C=C/C(=O)Nc1ccc2[nH]c(CO)cc2c1,213
19,CC(C)Nc1ncnc2cscc12,230
20,Cc1nc(N2CCN(CCCc3ccccc3)C2=O)sc1C(=O)NCc1cccnc1,127 to 128
21,CC(C)C(NC(=O)CN1C=Cc2c([nH]c3c(C(=O)O)cccc23)C1)C(=O)C(F)(F)F (configuration not stated),260 to 262
22,CC(=O)NC(C)(C(=O)NS(=O)(=O)c1ccc(C)cc1)C(C)C (configuration not stated),198 to 199
23,CCN(CC)CCNc1ccc(CNS(C)(=O)=O)c2sc3ccc(Br)cc3c(=O)c12,134 to 139

row,SMILES,melting point [°C]
1,CC(C)C(=NO)c1ccc(Br)cc1,126 to 136
2,C#Cc1cccc(Nc2ncnc3ccc(S(=O)(=O)n4ccc(C=CC(=O)OCC)c4)cc23)c1,154 to 156
3,CC12CCC3c4ccc(O)cc4C(CC(=O)O)CC3C1CC(O)C2O (configuration not stated),259 to 262
4,O=C1COc2ccc(CCCCCCc3ccc4c(c3)NC(=O)CO4)cc2N1,219 to 225
5,CCCN(C(C)=O)c1ccc(C(=O)N2CCN(CCc3ccc(Cl)cc3)CC2)cc1,112 to 113
6,COc1ccc(Nc2ncnc3cc(Cl)ccc23)cc1,177 to 179
7,CC(C)[Si](C#Cc1c2ccccc2c2ccc3c(C#C[Si](C(C)C)(C(C)C)C(C)C)c4ccccc4c4ccc1c2c34)(C(C)C)C(C)C,318 to 321
8,N#CC(c1ccc(O)cc1)c1c(Cl)cc(-n2ncc(=O)[nH]c2=O)cc1Cl (configuration not stated),210
9,O=C1C(=O)N(Cc2ccc([N+](=O)[O-])cc2)CCN1Cc1ccc([N+](=O)[O-])cc1,257 to 260
10,Cc1cccc(-c2ccc(C(=O)O)cc2)c1,198 to 200
11,COC(=O)c1c(F)cc(OCCNC(=O)C2Cc3ccccc3N2S(=O)(=O)c2ccc(-c3ccc(F)cc3C)cc2)cc1F (configuration not stated),65 to 72
12,CCN(CC)C(=O)C=Cc1cc([N+](=O)[O-])ccc1C,61.9
13,CCOC(=O)c1cnc2c(NC(=O)c3c(Cl)cccc3Cl)cccc2c1CSc1ccncc1,179 to 181
14,COCc1nc2c(NCc3c(C)cccc3C)cc(C(=O)O)cc2n1C,269 to 272
15,CC1Cc2cccc3c4oc(=O)c(Sc5cccc(F)c5)c(O)c4c(=O)n1c23 (configuration not stated),199 to 200
16,Cc1cc(OCc2ccc(-c3ccc(C(F)(F)F)cc3)nc2C)ccc1SCC(=O)O,168 to 169
17,CC(C)n1c(=O)n(CC#N)c2cc(-c3ncc(C(F)(F)F)cc3Cl)ccc21,158 to 159
18,COc1cccc(CN2Cc3cc(OC)c(OCc4ccccc4)cc3C(OC)C2)c1 (configuration not stated),96 to 97
19,COC(=O)c1cccc2c1N(CCN(C(C)C)C(C)C)C(=O)/C2=N\NC(N)=O,192 to 195
20,COc1ccc(-c2coc3c(C)c(O)ccc3c2=O)cc1,235
21,CC(C)(C)NS(=O)(=O)c1ccccc1,77 to 78
